Experiments:
[1] = test system: C. albicans; assay: Horse serum-induced germ tube formation of C. albicans; type: cell-based; details: 10^−6M, 60 minutes at 37° C.
Procedure: C. albicans from stationary phase cultures were washed twice with distilled water and suspended in HBSS to a final concentration of 2×10^6/ml. Hyphal growth was induced by addition of 10% inactivated horse serum (GIBCO/BRL, Great Britain) to yeast incubated for 45 minutes at 37° C. with continuous shaking. Horse serum was removed by washing cells twice with HBSS and incubation was continued for 60 minutes at 37° C. in the presence of α-MSH (1-13), α-MSH (6-13) or α-MSH (11-13) at a concentration of 10^−6M with continuous shaking. The percentage of filamentous cells was evaluated under a light microscope with the aid of hemocytometer. Experiments were run in triplicate and at least 200 cells were scored. Photomicrographs were taken with an MC100 camera attached to an Axioskop Zeiss microscope.

[2] = test system: inflammation induced in the hind paw; assay: Kappa carrageenan-induced hind paw inflammation, spinal cord intact or transected; type: in vivo, BALB/c mice; details: for inhibition of hind paw inflammation: central administration, spinal cord intact mice
Procedure: Because surgical dissection of trigeminal structures that innervate the ear of the mouse is very difficult, tests to learn whether descending neural pathways are essential to the anti-inflammatory activity of centrally administered α-MSH peptides were performed in mice with inflammation induced in a hind paw. In these experiments, each animal was anesthetized with pentobarbital sodium solution as above. Baseline footpad thickness of both hind paws was measured with a spring-loaded micrometer (Swiss Precision Instruments, Los Angeles, Calif.). Paw thickness was expressed in units of 10^−3 cm; average thickness of unstimulated paws was 171.5×10^−3 cm across shipments of animals. Kappa carrageenan (Sigma) dissolved in saline (0.05%, 20 μl) was injected (28 gauge allergy test syringe) into one footpad, and saline (20 μl) was injected into the other. For the analyses, the increase in thickness of the control saline-injected paw of each animal was subtracted from that of the carrageenan-injected paw, to eliminate the influence of mechanical injury and volume of the injected fluid. To be certain that mice with severed spinal cords can react to anti-inflammatory agents, prednisolone (2.5 mg/mouse (IP injection)) was administered to 10 mice with spinal transection and inflammation induced by carrageenan. Treatment with the locally acting steroid reduced swelling up to 29% (average, relative to saline controls) at 4.5 h. after carrageenan.
However, a standardized crushing of lumbar vertebrae with a hemostat was effective in severing the cord; no deaths were caused by this treatment. […] The experiments were limited to 4.5 h to reduce problems of bowel and bladder dysfunction. Immediately after the 4.5 h measurements all mice were killed with an overdose of sodium pentobarbital.
Because of the size of the experiments and the requirement for several shipments of animals over time, several experiments were performed, each with complete treatment and control groups drawn from the same shipment of mice. Omnibus analysis of variance techniques (Dynastat, Washington, D.C.) were used to test overall differences among group means. Tukey's protected t test was used to compare individual means. Probability values of <0.05 were considered significant.

[3] = test system: TNF-α and iNOS mRNA; assay: Northern blot of TNF-α and iNOS mRNA in activated microglia; type: cell-based, murine
Procedure: Total cellular RNA was extracted from 10^6 adherent microglial cells plated in six-well tissue culture plates (Corning). Electrophoresis of RNA samples (10 μg/lane) was performed in 1% agarose/2.2 M formaldehyde gels and the gels subsequently blotted onto nylon filters by capillary action and baked for 2 h before prehybridization. The cDNA fragments encoding murine TNF-α and mouse macrophage iNOS were ^32P-labeled using the Ready-To-Go DNA Labeling Kit (Pharmacia, Uppsala, Sweden) before hybridization of nylon filters and autoradiography. Blots were subsequently rehybridized with human glyceraldehyde-3-phosphate dehydrogenase (G-3-PDH) cDNA probe as an internal control (Clontech Laboratories, Inc., Palo Alto, Calif.).

[4] = test system: IL-6; assay: IL-6 production by activated N9 microglia; type: cell-based, murine; details: microglia stimulated with LPS+IFN-γ for 24 hr, micromolar concentrations
Procedure: The N9 clone of murine microglial cells was obtained by immortalization of embryonic brain cultures with the 3RV retrovirus carrying an activated v-myconcogene. N9 cells were cultured in T-75-cm^2 culture flasks (Corning, Cambridge, Mass.) and maintained at 37° C. in a humidified incubator under 5% CO2 atmosphere in RPMI 1640 supplemented with 2 mM L-glutamine, 50 U/mL penicillin G, 50 μg/mL streptomycin sulfate (GIBCO-BBL, Paisley, UK), and 10% heat-inactivated fetal bovine serum (FBS, Hyclone Lab, Inc., Logan, Utah) until experiments were performed. Cells were used between the first and the tenth passage.
Sub-confluent microglial cells were washed twice with phosphate-buffered saline (PBS) and incubated with trypsin 0.025% and ethylenediaminetetraacetate (EDTA) 0.02% without calcium and magnesium for 3 min. at 37° C. to detach the cells from the culture flask. Cells were then resuspended in medium and incubated in 24-well tissue-culture plates at a concentration of 2×10^5 cells/mL for 16 h in a humidified incubator (37° C., 5% CO2). Growth medium was removed and cell monolayers were stimulated with 10 ng/mL lipopolysaccharide (LPS, from Escherichia coli 055:B5, Sigma Chemical Co., St. Louis, Mo.) plus 1 U/ml, murine IFN-γ (Sigma). To test effects of melanocortin peptides, concentrations (1, 10, 25, 50 and 100 μM) of α-MSH (1-13), α-MSH (11-13), and ACTH (1-24) (Sigma) were dissolved in medium and added to wells 10 min before treatment with LPS+IFN-γ. […] Viability of cells was assessed by trypan blue exclusion for each experimental condition; it was consistently >98%. […]
TNF-α bioactivity was measured in supernatants of cell cultures by standard cytotoxicity assay using L929 cells and recombinant human TNF-α (Sigma) as standard. […] IL-6 was measured using a commercial murine enzyme-linked immunosorbent assay (ELISA: RPN 2714, Amersham, Little Chalfont, UK).
Effects of melanocortin peptides on cytokine and NO production were evaluated by repeated measures analysis of variance followed by Dunnet's test for specific comparisons. […]

SYSMEHFRWGKPV [α-MSH (1-13)]
reduction in the number of filamentous cells (inhibition of germination) [1]: 28-32%
inhibition of hind paw inflammation ([2]; 3 h): 57%
inhibition of hind paw inflammation ([2]; 4.5 h): 29%
anti-inflammatory effect after spinal cord transection ([2]; centrally administered): significantly reduced the anti-inflammatory effect
anti-inflammatory effect after spinal cord transection ([2]; given intraperitoneally): significant, although smaller, inhibitory effect later in the period
mRNA for TNF-α and iNOS (Northern blot) [3]: inhibition of mRNA transaction for TNF-α and iNOS
reduction of production of IL-6 [4]: 31%

Reference: patent publication US6969590B2, “Use of a polypeptide for treatment of pruritus in animals” (Zengen, Inc., priority 2001, dated 2005)
